Patent US10160729B2, “Hsp70 modulators and methods for making and using the same” (Memorial Sloan Kettering Cancer Center, priority 2014, dated 2018)

tested on: MOLM-13 cells; assay: Caspase cleavage assay (Caspase3, 7 activation); assay type: cell-based; settings: Homo sapiens, 16 h treatment, caspase substrate Z-DEVD-R110, read-out: c* Concentration at which 50% of the maximum signal was achieved (caspase activation)
How it was run: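 Cells (30,000/well, RPMI) treated 16 h with compound or DMSO in triplicate, then given buffer with 10 mM HEPES pH 7.5, 2 mM EDTA, 0.1% CHAPS and 25 μM Z-DEVD-R110. Fluorescence read once signal stabilized; results given as percentage increase in apoptotic cells versus DMSO-treated control.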

EC50 [µM]	SMILES
< 0.2	COc1cc(COc2nc(N3CC[C@@H](N(C)C)C3)ncc2Sc2ccc(C(N)=O)cc2)ccc1F [compound 208, (R)-4-((2-(3-(Dimethylamino)pyrrolidin-1-yl)-4-((4-fluoro-3-methoxybenzyl)oxy)pyrimidin-5-yl)thio)benzamide]
≥ 1.2	CN1CCN(c2ncc(Oc3ccc(C(N)=O)cc3)c(OCc3ccccc3)n2)CC1 [compound 282, 4-((4-(Benzyloxy)-2-(4-methylpiperazin-1-yl)pyrimidin-5-yl)oxy)benzamide]
≥ 1.2	COc1ccc(COc2nc(N3CCN(C)CC3)ncc2Oc2ccc(C(N)=O)cc2)cc1 [compound 283, 4-((4-((4-Methoxybenzyl)oxy)-2-(4-methylpiperazin-1-yl)pyrimidin-5-yl)oxy)benzamide]
0.4 to 1	CN1CCN(c2ncc(Oc3ccc(C(N)=O)cc3)c(OCc3cccc(N(C)C)c3)n2)CC1 [compound 284, 4-((4-((3-(Dimethylamino)benzyl)oxy)-2-(4-methylpiperazin-1-yl)pyrimidin-5-yl)oxy)benzamide]
≥ 1.2	COc1cccc(COc2nc(N3CCN(C4(C)CC4)CC3)ncc2Sc2ccc(C(N)=O)cc2)c1 [compound 311, 4-((4-((3-Methoxybenzyl)oxy)-2-(4-(1-methylcyclopropyl)piperazin-1-yl)pyrimidin-5-yl)thio)benzamide]
≥ 1.2	COc1cccc(COc2nc(N3CCN(C(C)(C)C4CC4)CC3)ncc2Sc2ccc(C(N)=O)cc2)c1 [compound 313, 4-((2-(4-(2-Cyclopropylpropan-2-yl)piperazin-1-yl)-4-((3-methoxybenzyl)oxy)pyrimidin-5-yl)thio)benzamide]
1 to 1.2	COc1cccc(COc2nc(N3CCN([C@@H](C)C4CC4)CC3)ncc2Sc2ccc(C(N)=O)cc2)c1 [compound 315, (S)-4-((2-(4-(1-Cyclopropylethyl)piperazin-1-yl)-4-((3-methoxybenzyl)oxy)pyrimidin-5-yl)thio)benzamide]
≥ 1.2	COc1cccc(COc2nc(N3CCN([C@H](C)C4CC4)CC3)ncc2Sc2ccc(C(N)=O)cc2)c1 [compound 317, (R)-4-((2-(4-(1-Cyclopropylethyl)piperazin-1-yl)-4-((3-methoxybenzyl)oxy)pyrimidin-5-yl)thio)benzamide]
≥ 1.2	COc1cccc(COc2nc(N3CCNC(=O)C3)ncc2Sc2ccc(C(N)=O)cc2)c1 [compound 319, 4-((4-((3-Methoxybenzyl)oxy)-2-(3-oxopiperazin-1-yl)pyrimidin-5-yl)thio)benzamide]
< 0.2	COc1cccc(COc2nc(N3CCN(CC4CC4)C(=O)C3)ncc2Sc2ccc(C(N)=O)cc2)c1 [compound 321, 4-((2-(4-(Cyclopropylmethyl)-3-oxopiperazin-1-yl)-4-((3-methoxybenzyl)oxy)pyrimidin-5-yl)thio)benzamide]
< 0.2	COc1cccc(COc2nc(N3CCN(Cc4ncco4)CC3)ncc2Sc2ccc(C(N)=O)cc2)c1 [compound 323, 4-((4-((3-Methoxybenzyl)oxy)-2-(4-(oxazol-2-ylmethyl)piperazin-1-yl)pyrimidin-5-yl)thio)benzamide]
< 0.2	COc1cccc(COc2nc(N3CCN(CC#CCO)CC3)ncc2Sc2ccc(C(N)=O)cc2)c1 [compound 326, 4-((2-(4-(4-Hydroxybut-2-yn-1-yl)piperazin-1-yl)-4-((3-methoxybenzyl)oxy)pyrimidin-5-yl)thio)benzamide]
0.4 to 1	Cc1cccc(COc2nc(N3CCN(C)CC3)ncc2Sc2ccc(C(N)=O)c(C(F)(F)F)c2)c1 [compound 329, 4-((4-((3-Methylbenzyl)oxy)-2-(4-methylpiperazin-1-yl)pyrimidin-5-yl)thio)-2-(trifluoromethyl)benzamide]
< 0.2	C#CCN1CCN(c2ncc(Sc3ccc(C(N)=O)cc3)c(OCc3cccc(N(C)C)c3)n2)CC1 [compound 336, 4-((4-((3-(Dimethylamino)benzyl)oxy)-2-(4-(prop-2-yn-1-yl)piperazin-1-yl)pyrimidin-5-yl)thio)benzamide]
0.4 to 1	C#CCN1CCN(c2ncc(Sc3ccc(C(N)=O)cc3)c(OCc3cccc(Cl)c3)n2)CC1 [compound 348, 4-((4-((3-Chlorobenzyl)oxy)-2-(4-(prop-2-yn-1-yl)piperazin-1-yl)pyrimidin-5-yl)thio)benzamide]

The next lines start with the molecule.

SMILES	EC50 [µM]
COc1cc(COc2nc(N3CC[C@@H](N(C)C)C3)ncc2Sc2ccc(C(N)=O)c(Cl)c2)ccc1F [compound 212, (R)-2-Chloro-4-((2-(3-(dimethylamino)pyrrolidin-1-yl)-4-((4-fluoro-3-methoxybenzyl)oxy)pyrimidin-5-yl)thio)benzamide]	< 0.2
COc1cc(COc2nc(N3CC[C@@H](N)C3)ncc2Sc2ccc(C(N)=O)c(Cl)c2)ccc1F [compound 213, (R)-4-((2-(3-Aminopyrrolidin-1-yl)-4-((4-fluoro-3-methoxybenzyl)oxy)pyrimidin-5-yl)thio)-2-chlorobenzamide]	≥ 1.2
CN[C@@H]1CCN(c2ncc(Sc3ccc(C(N)=O)c(Cl)c3)c(OCc3ccc(F)c(OC)c3)n2)C1 [compound 214, (R)-2-Chloro-4-((4-((4-fluoro-3-methoxybenzyl)oxy)-2-(3-(methylamino)pyrrolidin-1-yl)pyrimidin-5-yl)thio)benzamide]	0.4 to 1
CN(C)[C@@H]1CCN(c2ncc(Sc3ccc(C(N)=O)c(C(F)(F)F)c3)c(OCc3cccc(Cl)c3)n2)C1 [compound 218, (R)-4-((4-((3-Chlorobenzyl)oxy)-2-(3-(dimethylamino)pyrrolidin-1-yl)pyrimidin-5-yl)thio)-2-(trifluoromethyl)benzamide]	< 0.2
CN(C)C1CN(c2ncc(Sc3ccc(C(N)=O)c(C(F)(F)F)c3)c(OCc3cccc(Cl)c3)n2)C1 [compound 225, 4-((4-((3-Chlorobenzyl)oxy)-2-(3-(dimethylamino)azetidin-1-yl)pyrimidin-5-yl)thio)-2-(trifluoromethyl)benzamide]	0.2 to 0.4
C#CCCCCN1CCN(c2ncc(Sc3ccc(C(N)=O)c(C(F)(F)F)c3)c(OCc3cccc(Cl)c3)n2)CC1 [compound 226, 4-((4-((3-Chlorobenzyl)oxy)-2-(4-(hex-5-yn-1-yl)piperazin-1-yl)pyrimidin-5-yl)thio)-2-(trifluoromethyl)benzamide]	0.2 to 0.4
NC(=O)c1ccc(Sc2cnc(N3CCN(C4CC4)CC3)nc2OCc2cccc(Cl)c2)cc1C(F)(F)F [compound 227, 4-((4-((3-Chlorobenzyl)oxy)-2-(4-cyclopropylpiperazin-1-yl)pyrimidin-5-yl)thio)-2-(trifluoromethyl)benzamide]	≥ 1.2
NC(=O)c1ccc(Sc2cnc(N3CCN(Cc4ccco4)CC3)nc2OCc2cccc(Cl)c2)cc1C(F)(F)F [compound 228, 4-((4-((3-Chlorobenzyl)oxy)-2-(4-(furan-2-ylmethyl)piperazin-1-yl)pyrimidin-5-yl)thio)-2-(trifluoromethyl)benzamide]	< 0.2
NC(=O)c1ccc(Sc2cnc(N3CCN(Cc4nccs4)CC3)nc2OCc2cccc(Cl)c2)cc1C(F)(F)F [compound 229, 4-((4-((3-Chlorobenzyl)oxy)-2-(4-(thiazol-2-ylmethyl)piperazin-1-yl)pyrimidin-5-yl)thio)-2-(trifluoromethyl)benzamide]	0.2 to 0.4
CN1CCN(c2ncc(Cc3ccc(C(N)=O)cc3)c(OCc3ccccc3)n2)CC1 [compound 299, 4-((4-(Benzyloxy)-2-(4-methylpiperazin-1-yl)pyrimidin-5-yl)methyl)benzamide]	0.2 to 0.4
CN1CCN(c2ncc(Cc3ccc(C(N)=O)cc3)c(OCc3ccc(C#N)cc3)n2)CC1 [compound 304, 4-((4-((4-Cyanobenzyl)oxy)-2-(4-methylpiperazin-1-yl)pyrimidin-5-yl)methyl)benzamide]	≥ 1.2
CC(C)c1cccc(COc2nc(N3CCN(C)CC3)ncc2Sc2ccc(C(N)=O)c(C(F)(F)F)c2)c1 [compound 331, 4-((4-((3-Isopropylbenzyl)oxy)-2-(4-methylpiperazin-1-yl)pyrimidin-5-yl)thio)-2-(trifluoromethyl)benzamide]	≥ 1.2
CCc1cccc(COc2nc(N3CCN(C)CC3)ncc2Sc2ccc(C(N)=O)c(C(F)(F)F)c2)c1 [compound 333, 4-((4-((3-Ethylbenzyl)oxy)-2-(4-methylpiperazin-1-yl)pyrimidin-5-yl)thio)-2-(trifluoromethyl)benzamide]	1 to 1.2
C#CCN1CCN(c2ncc(Sc3ccc(C(N)=O)c(C(F)(F)F)c3)c(OCc3cccc(N(C)C)c3)n2)CC1 [compound 339, 4-((4-((3-(Dimethylamino)benzyl)oxy)-2-(4-(prop-2-yn-1-yl)piperazin-1-yl)pyrimidin-5-yl)thio)-2-(trifluoromethyl)benzamide]	0.4 to 1
CN(C)c1cccc(COc2nc(N3CCN(C4CC4)CC3)ncc2Sc2ccc(C(N)=O)c(C(F)(F)F)c2)c1 [compound 341, 4-((2-(4-Cyclopropylpiperazin-1-yl)-4-((3-(dimethylamino)benzyl)oxy)pyrimidin-5-yl)thio)-2-(trifluoromethyl)benzamide]	≥ 1.2
CN(C)c1cccc(COc2nc(N3CCN(CC4CC4)CC3)ncc2Sc2ccc(C(N)=O)c(C(F)(F)F)c2)c1 [compound 343, 4-((2-(4-(Cyclopropylmethyl)piperazin-1-yl)-4-((3-(dimethylamino)benzyl)oxy)pyrimidin-5-yl)thio)-2-(trifluoromethyl)benzamide]	≥ 1.2
CN1CCN(c2ncc(Sc3ccc(C(N)=O)c(C(F)(F)F)c3)c(OCc3cccc(N(C)C)c3)n2)CC1=O [compound 345, 4-((4-((3-(Dimethylamino)benzyl)oxy)-2-(4-methyl-3-oxopiperazin-1-yl)pyrimidin-5-yl)thio)-2-(trifluoromethyl)benzamide]	1 to 1.2
C#CCN1CCN(c2ncc(Sc3ccc(C(N)=O)c(C(F)(F)F)c3)c(OCc3cccc(Cl)c3)n2)CC1 [compound 351, 4-((4-((3-Chlorobenzyl)oxy)-2-(4-(prop-2-yn-1-yl)piperazin-1-yl)pyrimidin-5-yl)thio)-2-(trifluoromethyl)benzamide]	1 to 1.2
